The record followed here is US9415108B2, “Compositions for transdermal delivery of active agents” (NeuroDerm, Ltd., priority 2010, dated 2016).

What all share (format): in vitro ADME
The nature of data set [1]: Transdermal delivery of opipramol through full thickness pig skin ex vivo. The method, then:
FIG. 7 depicts the effect of organic acids on the transdermal delivery of opipramol through full thickness pig skin. Formulations containing opipramol, various organic acids (succinic acid, citric acid, lactic acid, ascorbic acid, malic acid, or tartaric acid), octanol, lauroglycol, and/or Klucel® are prepared. Samples are collected from the receive cell at 22 and 46 hours after application of the formulations to the skin. The amount of opipramol compounds in the receiver cell fluid is determined using a spectrophotometer and/or UV-HPLC at 280 nm. FIG. 8 depicts the effects of octanol, limonene and/or lauroglycol on the transdermal delivery of opipramol (5% by weight) through full thickness pig skin.

Experiment in data set [2]: as above
This is another data set of the same source.

Data set [3] in a line: Transdermal delivery of carbidopa through full thickness pig skin ex vivo, Franz Cell delivery system. The note with it: for Transdermal delivery of Carbidopa through full thickness pig skin, ex vivo: 24 h, 8.85% carbidopa-arginine salt. The method, then: The effects of octanol, limonene and/or lauroglycol on the transdermal delivery of carbidopa through full thickness pig skin are evaluated using the Franz Cell delivery system. Formulations containing carbidopa, octanol, limonene, and/or lauroglycol are prepared (formulations 1-8). Samples are collected from the receive cell at 24 and 41 hours after application of the formulation to the skin. The amount of carbidopa compounds in the receiver cell fluid is determined using a spectrophotometer and/or UV-HPLC at 280 nm. […] In Table 1 and FIG. 1, the formulations each contain 14.5% (by weight) carbidopa-arginine salt. In Table 2 the formulations each contain 8.85% (by weight) carbidopa-arginine salt.

Setting [4] is: inclusion of Klucel hydroxypropyl cellulose in formulation containing octanol and limonene (FIG. 4).

Take `OCCN1CCN(CCCN2c3ccccc3C=Cc3ccccc32)CC1` [opipramol]: in data set [1] (FIG. 7), the “Effect of addition of organic acids on transdermal delivery of opipramol” value is recorded as “significantly increases”; the “Effect of lactic acid and citric acid on opipramol penetration through the skin” value is “minimal effect”. The “Effect of tartaric acid on opipramol delivery relative to other organic acids” value in data set [1] (FIG. 7, followed by ascorbic, succinic and malic acid) is listed as “highest enhancing effect”. Besides, the “Effect of lauroglycol in the formulation on opipramol delivery” value in data set [1] (FIG. 8, Table 3) was “reduces the additive and/or synergistic effect”. In data set [1] (FIG. 8, opipramol 5% by weight), the “Effect of the combination of octanol and limonene on delivery of opipramol through pig skin” value was “additive and/or synergistic effect”. Also, in data set [2] (FIG. 9), the “Effect of glutamic acid on opipramol penetration through the skin” value is on record as “significantly increases”. The “Effect of increasing concentration of Klucel on penetration of opipramol through the skin” value in data set [2] (FIG. 10) was “reduces”. Further, in data set [2] (FIG. 11), the “Effect of tartaric acid on opipramol penetration through the skin as compared to opipramol base” value is listed as “significantly increases” and the “Tartaric acid compared with hydrochloric acid, opipramol penetration” value was “significantly superior”. The “Opipramol delivery of formulation containing 2.5% (wt) opipramol” value in data set [2] (FIG. 12, compared with 1% formulation) was “delivers more opipramol than the 1% formulation”. For the same compound, the “Transdermal delivery of opipramol at 5% opipramol in the formulation” value in data set [2] (FIG. 12, higher concentration) is reported as “may be inhibited”. Besides, the “Rate of opipramol penetration” value in data set [2] (glutamic acid formulation, in the presence of 1% limonene (FIG. 9)) is recorded as “reduced”. Also, in data set [2] (glutamic acid formulation, in the presence of 5% water (FIG. 9)), the “Lag time of opipramol penetration through the skin” value is “shortened”.
Take `C[C@@](Cc1ccc(O)c(O)c1)(NN)C(=O)O` [Carbidopa, carbidopa]: the “Transdermal delivery of Carbidopa through full thickness pig skin, ex vivo” value came to 1.0 mg/cm^2 in data set [3] (Octanol 0, Limonene 1.5, Oleic Acid 0); 1.0 mg/cm^2 in data set [3] (Octanol 0, Limonene 1.5, Oleic Acid 2); 6.4 mg/cm^2 in data set [3] (Octanol 4, Limonene 1.5, Oleic Acid 0). Also, in data set [3] (FIG. 1, depends on the octanol:lauroglycol ratio), the “Effect of the combination of octanol and lauroglycol on delivery of carbidopa through pig skin” value is recorded as “enhances”. In data set [3] (FIGS. 1 and 2, Tables 1 and 2), the “Effect of the combination of octanol and limonene on delivery of carbidopa through pig skin” value was “additive and/or synergistic effect”. Moreover, in data set [3] (addition of lactic acid to formulation containing octanol and limonene (FIG. 3)), the “Effect on lag time of carbidopa penetration through the skin” value is “reduces”. Besides, in data set [3] (setting [4]), the “Effect on lag time of carbidopa penetration” value is reported as “increases”. Besides, in data set [3] (setting [4]), the “Effect on rate of carbidopa penetration through the skin” value is recorded as “reduces”. For the same compound, in data set [3] (on increasing the amount of carbidopa in the formulation by 50% (FIG. 5)), the “Enhancement of penetration of the drug through the skin” value was 25%.
